This note sets out measurements from patent publication US8822534B2, “Substituted aminopropionic derivatives as neprilysin inhibitors” (priority 2009, dated 2014).

In general, IC50 refers to the point on the concentration scale where inhibition reaches its midpoint.

Each structure is given as a SMILES string.

For the experiment, the target named is recombinant human neutral endopeptidase (NEP, EC 3.4.24.11) (Homo sapiens (Human), UniProt P08473). Nature of the experiment: in vitro inhibition of recombinant human neutral endopeptidase (fluorescence lifetime assay). It counts as biochemical. The source says: The activity of a compound according to the present invention can be assessed by the following in vitro & in vivo methods and/or by the following in vitro & in vivo methods well-described in the art. See A fluorescence lifetime-based assay for protease inhibitor profiling on human kallikrein 7 Doering K, Meder G, Hinnenberger M, Woelcke J, Mayr L M, Hassiepen U Biomol Screen.
Chain of recombinant human neutral endopeptidase (NEP, EC 3.4.24.11) (P08473 whole entry): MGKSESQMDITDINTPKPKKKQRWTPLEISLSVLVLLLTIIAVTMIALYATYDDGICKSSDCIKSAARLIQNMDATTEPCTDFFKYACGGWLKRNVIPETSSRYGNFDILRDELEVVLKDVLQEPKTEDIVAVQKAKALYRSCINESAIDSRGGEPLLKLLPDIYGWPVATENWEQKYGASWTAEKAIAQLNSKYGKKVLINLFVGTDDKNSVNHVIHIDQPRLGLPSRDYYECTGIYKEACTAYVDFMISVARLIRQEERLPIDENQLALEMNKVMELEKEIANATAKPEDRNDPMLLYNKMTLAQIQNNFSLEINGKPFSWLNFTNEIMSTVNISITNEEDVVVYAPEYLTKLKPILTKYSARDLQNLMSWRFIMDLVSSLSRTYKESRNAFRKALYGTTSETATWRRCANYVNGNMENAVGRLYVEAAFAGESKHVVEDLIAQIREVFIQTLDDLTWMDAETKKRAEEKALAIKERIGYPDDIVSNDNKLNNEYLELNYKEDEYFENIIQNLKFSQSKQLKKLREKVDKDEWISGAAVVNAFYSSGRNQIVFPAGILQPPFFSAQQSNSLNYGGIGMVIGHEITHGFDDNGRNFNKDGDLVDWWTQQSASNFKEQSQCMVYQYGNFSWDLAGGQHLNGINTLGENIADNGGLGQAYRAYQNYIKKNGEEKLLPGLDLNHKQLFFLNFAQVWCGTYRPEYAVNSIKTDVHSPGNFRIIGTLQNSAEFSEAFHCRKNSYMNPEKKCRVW
In particular, the in vitro inhibition of recombinant human neutral endopeptidase (NEP, EC 3.4.24.11) can be determined as follows: […]

Turning to `O=C(O)C[C@@H](Cc1ccc(-c2cccc(Cl)c2)cc1)NC(=O)CCC(=O)Oc1ccc2c(c1)CCC2` [Example 3-27], the half-maximal inhibitory concentration (IC50) worked out at 15 nM.
